Data published in ChEMBL document CHEMBL4837247, “Discovery of a Potent Dual SLK/STK10 Inhibitor Based on a Maleimide Scaffold” (J Med Chem, 2021).

Biological target: Serine/threonine-protein kinase 10 (Homo sapiens, UniProt O94804)
Assay: Inhibition of STK10 (unknown origin) expressed in Sf9 cells assessed as transfer of radiolabelled phosphate group from ATP by reaction biology method

Sequence of Serine/threonine-protein kinase 10 (O94804 whole entry): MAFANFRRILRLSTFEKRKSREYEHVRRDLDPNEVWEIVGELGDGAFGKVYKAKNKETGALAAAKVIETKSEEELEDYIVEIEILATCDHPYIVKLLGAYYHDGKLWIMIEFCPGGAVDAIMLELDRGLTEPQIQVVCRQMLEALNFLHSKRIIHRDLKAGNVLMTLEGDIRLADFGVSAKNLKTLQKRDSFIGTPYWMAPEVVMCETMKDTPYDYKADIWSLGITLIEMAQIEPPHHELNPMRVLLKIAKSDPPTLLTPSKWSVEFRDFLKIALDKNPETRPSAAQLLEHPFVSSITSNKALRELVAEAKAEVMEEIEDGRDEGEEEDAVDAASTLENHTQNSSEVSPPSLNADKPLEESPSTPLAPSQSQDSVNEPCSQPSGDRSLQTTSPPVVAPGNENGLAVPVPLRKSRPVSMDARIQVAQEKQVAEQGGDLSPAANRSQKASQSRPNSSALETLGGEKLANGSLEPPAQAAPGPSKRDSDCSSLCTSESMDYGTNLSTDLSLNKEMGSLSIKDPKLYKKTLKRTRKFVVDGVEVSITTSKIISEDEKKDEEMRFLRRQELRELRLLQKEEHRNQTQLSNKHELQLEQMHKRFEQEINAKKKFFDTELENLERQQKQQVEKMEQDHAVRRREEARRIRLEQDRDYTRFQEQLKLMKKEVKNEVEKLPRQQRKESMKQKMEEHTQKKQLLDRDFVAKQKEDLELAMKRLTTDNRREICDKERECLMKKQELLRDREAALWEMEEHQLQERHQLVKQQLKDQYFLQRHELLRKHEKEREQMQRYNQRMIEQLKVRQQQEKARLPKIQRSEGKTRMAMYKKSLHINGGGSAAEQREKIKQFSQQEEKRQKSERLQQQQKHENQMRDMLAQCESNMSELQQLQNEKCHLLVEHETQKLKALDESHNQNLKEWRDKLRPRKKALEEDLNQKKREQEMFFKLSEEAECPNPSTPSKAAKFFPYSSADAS

Cn1cc(C2=C(c3cn(CCCSC(=N)N)c4ccccc34)C(=O)NC2=O)c2ccccc21 [BISINDOLYLMALEIMIDE IX]
IC50: 99 nM
